Reference: patent publication US3985779A, “M-phenoxyphenyl propionic acid derivatives and preparation thereof” (Eisai Co., Ltd., priority 1973, dated 1976)

Columns and labels:
[1] = test system: Carrageenin-induced edema; assay: Inhibitory activity on Carrageenin-induced Edema in rats (Experiment A); assay type: in vivo, rats (male Wistar); conditions: 3 hours after Carrageenin
Protocol: Inhibitory activity on Carrageenin-induced Edema in rats
Carrageenin was used as the agent for inducing edema and 5 male rats of Wistar strain having body weight of about 150 grs. after fasting for 16-17 hours were used as test animals. The inhibitory activity of the test compounds were determined with the paw edema method in accordance with Winter C. A. et al; Proc. Soc. Exp. Biol. Med. 111, 544 (1962).
The compounds were suspended in an aqueous solution of gum arabic and the same were orally administered to the rats at 1 hour before the injection of Carrageenin.
The observation was effected by measuring, after 3 hours the administration of the Carrageenin, the enlarged volumes of hind paw of the rats.

[2] = test system: Kaolin-induced edema; assay: Inhibitory activity on Kaolin-induced Edema in Rats (Experiment B); assay type: in vivo
[3] = test system: Dextran-induced edema; assay: Inhibitory activity on dextran-induced edema in rats (Experiment C); assay type: in vivo
Protocol: Inhibitory activity on dextran-induced edema in rats Experiment was carried out in the manner same as those of the preceding Experiments in which dextran was employed as irritant substance.

[4] = test system: ARRS-induced edema; assay: Inhibitory activity on anti-rat-rabbit serum (ARRS)-induced edema in rats (Experiment D); assay type: in vivo
Protocol: Inhibitory activity on anti-rat-rabbit serum (ARRS)-induced edema in rats Similar Experiments was carried out by using ARRS as irritant substance.

[5] = test system: stomachs of the rats; assay type: in vivo; conditions: 50 mg/kg oral; score 0 (nothing unusual) to 10 (considerable irritability with bleeding)
From the text: Observation of gastric irritability
Gastric irritability due to oral administration of the compounds as edema inhibitory agent was studied by macroscopical observation of the dissected stomachs of the rats which had been employed for determination of the edema inhibitions mentioned in the preceding paragraphs. The degrees of the irritability observed were scored in the 0 to 10 ratings depending upon the extent of errosions and bleedings of the stomachs, wherein the rating of 0(zero) means "nothing unusual", the rating of 10 means a state of considerable gastric irritability with bleeding and the remainders mean the intermediate degree of gastric irritability.

CC(C(=O)O)c1cccc(Oc2ccccc2)c1 (stereo not shown) [Compound (2), reference compound]
% of Inhibition ([1]; oral 8.0 mg/kg): 31% | Edema density ± S.E. ([1]; oral 8.0 mg/kg): .373 ± .039 | % of Inhibition ([1]; oral 10.0 mg/kg, 10 mg/kg): 35% | Edema density ± S.E. ([1]; oral 10.0 mg/kg, 10 mg/kg): .352 ± .063 | Edema D. ± S.E. ([2]; after 3 hrs, oral 8 mg/kg): .418 ± .040 | % of Inhibition ([2]; after 3 hrs, oral 40 mg/kg): 49% | Edema D. ± S.E. ([2]; after 3 hrs, oral 40 mg/kg): .212 ± .023 | % of Inhibition ([2]; after 5 hrs, oral 8 mg/kg): 11% | Edema D. ± S.E. ([2]; after 5 hrs, oral 8 mg/kg): .499 ± .048 | % of Inhibition ([2]; after 5 hrs, oral 40 mg/kg): 48% | Edema D. ± S.E. ([2]; after 5 hrs, oral 40 mg/kg): .292 ± .031 | Edema D. ± S.E. ([2]; after 7 hrs, oral 8 mg/kg): .612 ± .067 | % of Inhibition ([2]; after 7 hrs, oral 40 mg/kg): 33% | Edema D. ± S.E. ([2]; after 7 hrs, oral 40 mg/kg): .406 ± .057 | % of Inhibition ([3]; after 2 hrs, oral 8 mg/kg): 5% | Edema D. ± S.E. ([3]; after 2 hrs, oral 8 mg/kg): .795 ± .031 | % of Inhibition ([3]; after 2 hrs, oral 40 mg/kg): 1% | Edema D. ± S.E. ([3]; after 2 hrs, oral 40 mg/kg): .846 ± .013 | % of Inhibition ([3]; after 3 hrs, oral 8 mg/kg): 1% | Edema D. ± S.E. ([3]; after 3 hrs, oral 8 mg/kg): .749 ± .026 | % of Inhibition ([3]; after 3 hrs, oral 40 mg/kg): -3% | Edema D. ± S.E. ([3]; after 3 hrs, oral 40 mg/kg): .773 ± .027 | % of Inhibition ([4]; after 2 hrs, oral 8 mg/kg): 7% | Edema D. ± S.E. ([4]; after 2 hrs, oral 8 mg/kg): .634 ± .048 | % of Inhibition ([4]; after 2 hrs, oral 40 mg/kg): 19% | Edema D. ± S.E. ([4]; after 2 hrs, oral 40 mg/kg): .553 ± .038 | % of Inhibition ([4]; after 3 hrs, oral 8 mg/kg): 16% | Edema D. ± S.E. ([4]; after 3 hrs, oral 8 mg/kg): .599 ± .040 | % of Inhibition ([4]; after 3 hrs, oral 40 mg/kg): 26% | Edema D. ± S.E. ([4]; after 3 hrs, oral 40 mg/kg): .531 ± .026 | Degree of gastric irritability [5]: 3
